# Where a name gives a salt, the structure may show the parent alone.
# Assays:
# BCR-Abl = details: cited from earlier work
# [1] = tested on: α-synuclein PFF mouse model of sporadic PD; assay: α-synuclein PFF mouse model: dopaminergic neurodegeneration and striatal TH fiber density; assay type: in vivo, C57BL/6 mice; details: for SNpc TH- and Nissl-positive dopaminergic neurons (stereologic counting): 180 days after PFF
# Protocol: (§1) For stereotaxic injection of α-synuclein PFF, 2 months old mice were anesthetized with the mixture of xylazene and ketamine. An injection cannula (26.5 gauge) was applied stereotaxically into the striatum (anteroposterior, […]; dorsoventral, 2.6 mm) unilaterally into the right hemisphere. The infusion of 2 μl α-synuclein PFF (2.5 μg/μl in PBS) or PBS was performed at a rate of 0.4 μl per min. The head skin was closed by suturing and wound healing and recovery were monitored following surgery. For stereological analysis, animals were perfused and fixed intracardially with ice-cold PBS followed by 4% paraformaldehyde at 6 months after striatal α-synuclein PFF injections. The brain was removed and processed for immunohistochemistry or immunofluorescence. Behavioral test was performed at 6 months after the unilateral striatal α-synuclein PFF injections. Treatment of Radotinib HCl was accomplished after 1 month of striatal α-synuclein PFF injections, once a day.
# The perfusion was performed with ice-cold PBS and fixed by 4% paraformaldehyde after deep anesthesia. Whole brains were collected, and fixed in the 4% paraformaldehyde, and incubated in cryoprotection solution (30% sucrose/PBS, pH 7.4). Brains were frozen in an optimal cutting temperature (OCT) solution and serial coronal sections (30 µm sections) were cut with a microtome. […] TH-positive and Nissl-positive dopaminergic neurons from the SNpc region were counted through optical fractionators, the unbiased method for cell counting. […] The total number of TH-stained neurons and Nissl counts was analyzed as previously described ([27],[43]). Fiber density in the striatum was analyzed by optical density (OD) measurement. […] The number of pS129-α-synuclein positive and Nissl positive in the SNpc region were measured with ImageJ software and field counting. […] The number and immunoreactivities of microglia and astrocyte in the SNpc region were measured with ImageJ software.
# [2] = tested on: α-synuclein PFF mouse model of sporadic PD; assay: α-synuclein PFF mouse model: behavioral tests (pole, grip strength, amphetamine rotation); assay type: in vivo, C57BL/6 mice
# Protocol: as §1
# Before the actual test, mice were trained for three consecutive days and each training session consists of three test trials. Briefly, the mice were placed on the top of the pole (3 in. from the top of the pole) and then total time to reach the bottom of the pole was recorded. For the test, mice went through three sessions and the total time was recorded. Results were recorded by turn down, climb down, and total time (in seconds).
# Neuromuscular strength was measured by maximum holding force generated by the mice. Mice were allowed to grasp a metal grid with their forelimbs. The tail was gently pulled and the maximum holding force recorded by the force transducer (Biosed, USA) when the mice released their grasp on the grid.
# The amphetamine treatment (5 mg/kg, Sigma-Aldrich) was intraperitoneally administered after 6 months of α-synuclein PFF injections with or without Radotinib HCl treatment. Mice were placed in individual white bowls with a diameter of 20 cm and allowed to habituate to their environment for 10 min before turns contralateral and ipsilateral to the lesion were recorded over 20 min. Full-body ipsilateral rotations (clockwise) per 1 min session were recorded for each mouse from the video recordings.
# [3] = tested on: α-synuclein PFF mouse model of sporadic PD; assay: α-synuclein PFF mouse model: neuroinflammation (Iba-1, GFAP) in SNpc; assay type: in vivo, C57BL/6 mice
# Protocol: as §1
# The perfusion was performed with ice-cold PBS and fixed by 4% paraformaldehyde after deep anesthesia. Whole brains were collected, and fixed in the 4% paraformaldehyde, and incubated in cryoprotection solution (30% sucrose/PBS, pH 7.4). Brains were frozen in an optimal cutting temperature (OCT) solution and serial coronal sections (30 µm sections) were cut with a microtome. Free-floating sections were blocked with 5% goat or horse serum/PBS plus 0.2% Triton X-100 and incubated with anti-TH antibody (Novus Biologicals) or anti-pS129-α-synuclein followed by incubation with biotin-conjugated anti-rabbit antibody or anti-mouse antibody (Vector Labs). After washing three times, ABC reagents (Vector Labs) were added and sections were developed using SigmaFast 3, 3′-Diaminobenzidine (DAB) Peroxidase Substrate (Sigma-Aldrich). Sections were counterstained with Nissl (0.09% thionin). TH-positive and Nissl-positive dopaminergic neurons from the SNpc region were counted through optical fractionators, the unbiased method for cell counting. This method was carried out by using a computer-assisted image analysis system consisting of an Axiophot photomicroscope (Carl Zeiss Vision) equipped with a computer-controlled motorized stage (Ludl Electronics), a Hitachi HV C20 camera and Stereo Investigator software (MicroBright-Field). The total number of TH-stained neurons and Nissl counts was analyzed as previously described ([27],[43]). Fiber density in the striatum was analyzed by optical density (OD) measurement. […] The number of pS129-α-synuclein positive and Nissl positive in the SNpc region were measured with ImageJ software and field counting. […] The number and immunoreactivities of microglia and astrocyte in the SNpc region were measured with ImageJ software.
# [4] = tested on: α-synuclein PFF mouse model of sporadic PD; assay: α-synuclein PFF mouse model: LB/LN-like pathology in vivo; parameters: species or system C57BL/6 mice; details: for Accumulation of pS129-α-synuclein in SNpc TH-positive neurons: oral once a day for 5 months, 180 days after PFF
# Protocol: For Triton X-100 (TX, Sigma-Aldrich) soluble and insoluble fraction, cells were prepared with sequential lysis buffer. Samples were homogenized in the followed TX-soluble buffer (50 mM Tris (pH 8.0), 150 mM NaCl, 1% TX with phosphatase inhibitor cocktail and protease inhibitor cocktail) and then were centrifuged and collected the soluble supernatant. The insoluble pellet was resuspended in TX-insoluble buffer (50 mM Tris (pH 8.0), 150 mM NaCl, 1% TX, 2% SDS with phosphatase inhibitor cocktail and protease inhibitor cocktail) and then was sonicated and centrifuged at 22 000 × g for 30 min.
# Protein concentrations were determined using the BCA assay (Pierce, Rockford, IL, USA). 2X Laemmli buffer (Bio-Rad) was utilized to dilute the lysates. […] Membrane was blocked with TTBS (150 mM NaCl, 10 mM Tris–HCl (pH 7.4), 0.05% Tween 20) containing 5% skim milk for 30–60 min and incubated at 4°C overnight with primary antibodies; mouse anti-α-synuclein (610787; BD Transduction Laboratories), rabbit anti-pY245 c-Abl (2861; Cell Signaling Technology), mouse anti-c-Abl (554148; BD Transduction Laboratories), rabbit monoclonal anti-pS129 α-synuclein (ab168381; Abcam), rabbit polyclonal anti-phospho-p38 MAPK (Thr180/Tyr182) (9211; Cell Signaling Technology), rabbit polyclonal anti-p38 MAPK (A11340; Abclonal Technology) followed by HRP-conjugated rabbit or mouse secondary antibodies (1: 5000, GE Healthcare) for 1 h at room temperature. Rabbit polyclonal anti-pY39-α-synuclein antibody was generated as described previously ([13]). Protein bands were detected using chemiluminescence detection system onto X-ray film. The membranes were reprobed with HRP-conjugated β-actin antibody (1: 20 000, Sigma-Aldrich).
# (§2) Primary mouse cortical neurons were plated onto poly-D-lysine coated coverslips. 4% paraformaldehyde was used to fix the neurons, followed by blocking in a solution with 5% normal donkey serum (Jackson ImmunoResearch), 2% BSA (Sigma-Aldrich) and 0.1% TX (Sigma-Aldrich) for 30–60 min at room temperature. Floating brain tissue sections were blocked with 10% donkey serum (Jackson Immunoreserach) in PBS plus 0.2% TX for 30 min at room temperature.
# Primary antibodies, anti-pS129-α-synuclein (ab168381; Abcam), anti-TH antibody (Novus Biologicals) and anti-MAP2 (MAB3418; Millipore) were incubated at 4°C overnight. The samples were washed with PBS three times, followed by 1 h of incubation with a mixture of FITC-conjugated (Jackson ImmunoReserach) and Cy3-conjugated (Jackson ImmunoReserach) secondary antibodies at room temperature. […]
# (§3) For stereotaxic injection of α-synuclein PFF, 2 months old mice were anesthetized with the mixture of xylazene and ketamine. […] The head skin was closed by suturing and wound healing and recovery were monitored following surgery. […]
# primary cortical neurons [5] = assay: α-synuclein PFF-induced neuronal toxicity (TUNEL, Alamar Blue); assay type: cell-based, C57BL/6 mice; details: α-synuclein PFF 14 days; 50, 250, 1000 nM
# Protocol: (§4) C57BL/6 mice were obtained from the Charles River (Wilmington, MA). Primary cortical neurons were prepared from E15.5 pups and cultured in Neurobasal media supplemented with B-27, 0.5 mM L-glutamine, penicillin and streptomycin (Invitrogen, Grand Island, NY) on 24-well tissue culture plates coated with poly-D-lysine. Radotinib HCl was added to neurons for 30 min and α-synuclein PFF (final concentration 1 μg/ml) was further incubated as described (10 or 14 days) followed by Immunocytochemistry and biochemical or toxicity assays. Radotinib HCl was added to neurons three times a week before the assays.
# Cell viability was tested via two methods; In Situ Cell Death Detection Kit (Roche) for TUNEL assay and Alamar Blue assay (Thermo Fisher). […] Cell death was assessed through the TUNEL assay, according to the manufacturer’s protocol. For Alamar Blue assay, after adding Alamar Blue solution for 4 h, cell viability was determined by fluorescence at excitation wavelength 570 nm and emission wavelength 585 nm.
# primary cortical neurons [6] = assay: α-synuclein PFF-induced LB/LN-like pathology in primary cortical neurons (pS129-α-synuclein immunostaining); assay type: cell-based, C57BL/6 mice; details: 50 nM, 250 nM and 1 μM, dose-dependent; 10 days
# Protocol: as §4, §2
# Primary antibodies, anti-pS129-α-synuclein (ab168381; Abcam), anti-TH antibody (Novus Biologicals) and anti-MAP2 (MAB3418; Millipore) were incubated at 4°C overnight. […]
# primary cortical neurons [7] = assay: Oxygen consumption rate (Seahorse XF24) in α-synuclein PFF-treated primary cortical neurons; assay type: cell-based, mouse; details: 1 μM, 14 days
# Protocol: OCR was determined using the Seahorse XF24 Extracellular Flux Analyzer and the XF Cell Mito Stress Test Kit according to the manufacturer’s instruction (Agilent Technologies, Santa Clara, CA) ([42]). Briefly, primary mouse cortical neurons were plated in a XF24 cell culture microplate coated with poly-D-lysine. Cells were washed once with XF Assay Media, pre-incubated in a non-CO2 incubator at 37°C for 30 min in XF Assay Media. For the assay, cells were treated sequentially with 1 μM Oligomycin, 2 μM carbonyl cyanide-p-trifluoromethoxyphenylhydrazone (FCCP), and 1 μM Rotenone plus 1 μM Antimycin A. Oligomycin inhibits ATP synthase (complex V) to measure ATP production and proton leak. FCCP uncouples oxygen consumption from ATP production enables to measure maximal respiration. Rotenone and antimycin A inhibit complexes I and III and shut down mitochondrial respiration. Basal respiration was calculated using the mean of the OCR measurements before oligomycin injection minus the mean of the OCR measurements after rotenone and antimycin A injection, and maximal respiration was defined as the difference between the mean of the OCR measurements after FCCP injection and the mean of the OCR measurements after rotenone and antimycin A injection.
# c-Abl [8] = assay: α-synuclein PFF mouse model: c-Abl activation and p38 MAPK phosphorylation in brain (Western blot); assay type: in vivo, C57BL/6 mice
# Protocol: The mouse brain tissues were homogenized and prepared in lysis buffer (10 mM Tris–HCL, pH 7.4, 150 mM NaCl, 5 mM EDTA, 0.5% Nonidet P-40, 10 mM Na-β-glycerophosphate, phosphatase inhibitor cocktail (Sigma-Aldrich) and complete protease inhibitor mixture (Roche)), using a Diax 900 homogenizer (Sigma-Aldrich). After homogenization, samples were rotated at 4°C for 30 min for complete lysis, the homogenate was centrifuged at 22 000 × g for 30 min and the supernatants were collected.
# (§5) Protein concentrations were determined using the BCA assay (Pierce, Rockford, IL, USA). 2X Laemmli buffer (Bio-Rad) was utilized to dilute the lysates. […] Protein bands were detected using chemiluminescence detection system onto X-ray film. […]
# as §3
# c-Abl [9] = assay: α-synuclein PFF-induced c-Abl activation in primary cortical neurons (Western blot); assay type: cell-based, C57BL/6 mice; details: 1 μM
# Protocol: as §4
# After washing two times with PBS, primary cortical neurons were harvested and then lysed with RIPA lysis buffer (Thermo Scientific) with phosphatase inhibitor cocktail (Sigma-Aldrich) and complete protease inhibitor mixture (Roche) for 30 min in ice. The lysate is then homogenized and centrifuged at 22 000 × g for 30 min.
# as §5
# [10] = mid (10 mg/kg) and high (30 mg/kg) doses oral
# [11] = low (3), mid (10) and high (30 mg/kg) doses oral, 6 months after PFF
smiles,measurement,setting,value
Cc1cn(-c2cc(NC(=O)c3ccc(C)c(Nc4nccc(-c5cccnc5)n4)c3)cc(C(F)(F)F)c2)cn1 [Nilotinib],IC50,BCR-Abl,[…]
same,SNpc TH- and Nissl-positive dopaminergic neurons (stereologic counting),[1]; high dose (30 mg/kg) oral,dramatic preservation
same,Behavioral deficits in the α-synuclein PFF mouse model,[2]; high dose (30 mg/kg) oral,protected against the behavioral deficits
same,Astrocyte activation (GFAP) in SNpc,[3]; high dose (30 mg/kg) oral,significantly decreased
same,Iba-1 immunoreactivity and microglial density in SNpc,[3]; high dose (30 mg/kg) oral,significantly reduced
same,"Reduction of TX-insoluble α-synuclein aggregate species, pS129- and pY39-α-synuclein compared to Radotinib HCl",[4]; high dose (30 mg/kg) oral,less effect
same,Accumulation of pS129-α-synuclein in SNpc TH-positive neurons,[4]; high dose (30 mg/kg),significantly decreased
Cc1cn(-c2cc(NC(=O)c3ccc(C)c(Nc4nccc(-c5cnccn5)n4)c3)cc(C(F)(F)F)c2)cn1 [Radotinib HCl],IC50,BCR-Abl,34 nM
same,α-synuclein PFF-induced reduction in striatal TH-fiber density,"[1]; low (3), mid (10) and high (30 mg/kg) doses oral",significantly rescued
same,SNpc TH- and Nissl-positive dopaminergic neurons (stereologic counting),[1]; [10],dramatic preservation
same,Grip strength (neuromuscular strength reduced by α-synuclein PFF),[2]; [11],restored
same,Pole test latency induced by α-synuclein PFF,[2]; [11],significantly restored
same,Amphetamine-induced full body ipsilateral rotations,"[2]; mid (10 mg/kg) and high (30 mg/kg) doses oral, amphetamine 5 mg/kg I.P.",reduced
same,"α-synuclein PFF neuronal toxicity, Alamar blue assay",primary cortical neurons [5],significantly attenuated
same,"α-synuclein PFF neuronal toxicity, TUNEL staining",primary cortical neurons [5],significantly attenuated
same,LB/LN-like pathology induced by α-synuclein PFF (pS129-α-synuclein immunostaining),primary cortical neurons [6],significantly decreased
same,Astrocyte activation (GFAP) in SNpc,[3]; [10],significantly decreased
same,Iba-1 immunoreactivity and microglial density in SNpc,[3]; [10],significantly reduced
same,"TX-insoluble α-synuclein aggregates species, pS129-α-synuclein and pY39-α-synuclein levels in ventral midbrain","[4]; 3, 10, 30 mg/kg oral, dose-dependent",significantly reduced
same,Accumulation of pS129-α-synuclein in SNpc TH-positive neurons,[4]; mid (10 mg/kg) and high (30 mg/kg) doses,significantly decreased
same,Basal respiration rate (BRR),primary cortical neurons [7],markedly restored
same,Maximal respiration rate (MRR),primary cortical neurons [7],markedly restored
same,Increase in phosphorylation of c-Abl (Y245) and of p38 MAPK in α-synuclein PFF-injected mice,c-Abl [8]; Supplementary Fig. S1,reversed
same,"c-Abl activation, TX-insoluble α-synuclein aggregates, phosphorylation of Y39-α-synuclein and p38 MAPK, compared to Nilotinib-treated mice",c-Abl [8]; α-synuclein PFF-injected mice,substantially decreased
same,c-Abl activation induced by α-synuclein PFF (pY245-c-Abl),"c-Abl [9]; α-synuclein PFF 1 μg/ml, primary cortical neurons",significantly decreased
same,Level of pY39-α-synuclein,c-Abl [9]; α-synuclein PFF-treated primary cortical neurons,significantly decreased
